# Assay results as given in patent US8461183B2, “PPAR agonist compounds, preparation and uses” (Genfit, priority 2008, dated 2013).
# Tests used:
# Type in all cases: cell-based
# hPPARδ = target: T1, hPPARδ (Homo sapiens, UniProt Q03181); assay: Gal4-hPPARδ chimera transactivation (luciferase) in COS-7 cells; conditions: COS-7 cells, Gal4-hPPARδ, 24 hours; for EC50: luciferase, read-out: PPARδ EC50; for Emax: relative to maximum activation obtained with GW501516, read-out: PPARδ TOP % (maximum activation)
# T1 construct: corresponding to the DEF domains (structural elements of the promoter of the PPARs: D=hinge, EF=ligand fixation domain and AF2 fixation site); expressed in transfected cells; host or cells: COS-7 (monkey kidney fibroblasts)
# T1 sequence (Q03181 211-439 limits assumed): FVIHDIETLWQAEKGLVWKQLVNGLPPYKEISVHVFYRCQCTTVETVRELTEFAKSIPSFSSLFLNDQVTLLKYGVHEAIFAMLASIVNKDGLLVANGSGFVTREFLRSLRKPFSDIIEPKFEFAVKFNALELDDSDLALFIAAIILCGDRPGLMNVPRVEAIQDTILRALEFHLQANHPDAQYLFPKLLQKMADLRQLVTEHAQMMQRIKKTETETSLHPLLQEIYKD
# Summary of the method: (§1)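 COS-7 cells transfected with Gal4-DBD fused to human PPARγ or PPARδ DEF (hinge/ligand-binding) domain plus Gal4(RE)_TkpGL3 luciferase reporter (1:10).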
# hPPARα = target: T2, hPPARα (Homo sapiens, UniProt Q07869); assay: Gal4-hPPARα chimera transactivation (luciferase) in COS-7 cells; conditions: COS-7 cells, Gal4-hPPARα, 24 hours; for EC50: luciferase, read-out: PPARα EC50; for Emax: relative to maximum activation obtained with fenofibric acid, read-out: PPARα TOP % (maximum activation)
# T2 construct: corresponding to the DEF domains (structural elements of the promoter of the PPARs: D=hinge, EF=ligand fixation domain and AF2 fixation site); expressed in transfected cells; host or cells: COS-7 (monkey kidney fibroblasts)
# T2 sequence (Q07869 239-466 limits assumed): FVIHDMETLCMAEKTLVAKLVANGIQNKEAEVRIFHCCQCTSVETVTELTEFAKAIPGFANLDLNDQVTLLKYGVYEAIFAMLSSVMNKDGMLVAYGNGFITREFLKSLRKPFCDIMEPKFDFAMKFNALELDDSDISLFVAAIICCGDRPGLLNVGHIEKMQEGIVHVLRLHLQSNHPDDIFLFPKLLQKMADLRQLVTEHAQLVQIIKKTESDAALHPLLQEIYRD
# Summary of the method: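 COS-7 cells transiently co-transfected with Gal4 DBD–human PPARα, γ or δ DEF-domain chimeras plus Gal4(RE)_TkpGL3 luciferase reporter (1/10), seeded serum-free, then compound-treated 24 h at 37 °C in 1% Ultroser. Luciferase read after lysis; EC50 and TOP % relative to maximal activation by fenofibric acid (α), rosiglitazone (γ) or GW501516 (δ).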
# hPPARγ = target: T3, hPPARγ (Homo sapiens, UniProt P37231); assay: Gal4-hPPARγ chimera transactivation (luciferase) in COS-7 cells; conditions: 24 hours; for EC50: luciferase, read-out: PPARγ EC50; for Emax: relative to maximum activation obtained with rosiglitazone, read-out: PPARγ TOP % (maximum activation)
# T3 construct: corresponding to the DEF domains (structural elements of the promoter of the PPARs: D=hinge, EF=ligand fixation domain and AF2 fixation site); expressed in transfected cells; host or cells: COS-7 (monkey kidney fibroblasts)
# T3 sequence (P37231 238-503 limits assumed): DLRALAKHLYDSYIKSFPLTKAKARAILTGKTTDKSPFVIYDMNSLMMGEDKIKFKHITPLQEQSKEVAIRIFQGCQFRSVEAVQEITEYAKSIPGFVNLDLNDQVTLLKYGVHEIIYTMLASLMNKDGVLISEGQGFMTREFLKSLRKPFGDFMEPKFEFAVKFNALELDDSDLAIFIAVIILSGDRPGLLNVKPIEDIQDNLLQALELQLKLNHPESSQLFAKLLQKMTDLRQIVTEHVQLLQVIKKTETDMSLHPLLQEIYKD
# Summary of the method: as §1
EC50 (hPPARδ) [nM],Emax (hPPARδ) [%],EC50 (hPPARα) [nM],Emax (hPPARα) [%],EC50 (hPPARγ) [nM],Emax (hPPARγ) [%],Structure (SMILES)
3130,95.1,2370,68,1290,87,"COc1nc(-c2ccccc2)ccc1CNc1ccc(CCC(=O)O)cc1 [Cpd 19, 3-(4-(((2-methoxy-6-phenylpyridin-3-yl)methyl)amino)phenyl)propanoic acid]"
8670,115,1470,66.7,17700,70.5,"COc1nc(-c2ccccc2)ccc1CNc1ccc(OCC(=O)O)cc1 [Cpd 4, 2-(4-(((2-methoxy-6-phenylpyridin-3yl)methyl)amino)phenoxy)ethanoic acid]"
2000,109,143,48.3,12400,39.1,"COc1nc(-c2ccccc2)ccc1COc1ccc(OCC(=O)O)cc1 [Cpd 2, 2-(4-((2-methoxy-6-phenylpyridin-3-yl)methoxy)phenoxy)ethanoic acid]"
784,94.1,371,76.8,4490,65.7,"COc1nc(-c2ccc(C(F)(F)F)cc2)ccc1COc1ccc(OCC(=O)O)cc1 [Cpd 24, 2-(4-((2-methoxy-6-(4-(trifluoromethyl)phenyl)pyridin-3-yl)methoxy)-phenoxy)ethanoic acid]"
